{"source": "patent US20250136997A1", "about": "“COMPOSITIONS FOR SEQUESTERING ISOAMYL AMINE AND METHODS OF USE THEREFOR” (University of Louisville Research Foundation, Inc., priority 2023, published 2025)", "key": {"microglial cells [1]": {"system": "microglial cells", "assay": "Western blot of cleaved caspase-3 and cleaved PARP in ex vivo cultured microglial cells", "format": "cell-based, mouse", "description": "Isolation of microglia, neuron, astrocytes, and oligodendrocytes from the brain. Mice were anaesthetized with a mixture of ketamine (16%) and xylazine (3%) by intraperitoneal injection and then sacrificed under basal conditions by transcardial perfusion with perfusion buffer (Ca^2+/Mg^2+ free HBSS containing 0.5 mM EGTA, 10 mM HEPES and 4.2 mM NaHCO3; pH 7.2). The perfused brain was removed and gently mechanically disaggregated with tweezers in dissociation buffer (HBSS containing 10 mM HEPES and 4.2 mM NaHCO3 supplemented with Type I collagenase (0.05%), Dispase II (25 mg/ml), DNase I (2.5 mg/ml), trypsin inhibitor ([…]); pH 7.5) followed by incubation at 37° C. for 1 hour. The tissue homogenate was centrifuged at 1,350×g for 5 minutes at 4° C. For the isolation of microglia, the digestion enzymes in the tissue homogenate were inactivated by addition of PBS/EDTA containing 5% fetal bovine serum (FBS) and the digested brain bits were triturated gently, passed over a 100 µm filter (Fisher Scientific) and centrifuged. […] The pellet of cells was rinsed in PBS. Any contaminating red blood cells (RBC) were lysed using RBC lysis buffer (Sigma) according to the manufacturer's instructions, rinsed twice with PBS and passed through a 40 µm filter (Fisher Scientific). Cells were then stained for CD11b and CD45 for flow cytometry analysis. The astrocytes were isolated from mouse cortices (n=10). The tissue homogenate was centrifuged at 800×g for 10 minutes at 4° C. following digestion with type II collagenase (1 mg/ml) and type I DNase (10 U/ml) in DMEM for 10 minutes. The cells pelleted by centrifugation were plated in a 100 mm culture dish coated with poly-L-ornithine (Sigma). For the isolation of oligodendrocytes, the glial cells above were cultured in specific media containing T3 and T4 (0.5 mM) as well as platelet-derived growth factor (PDGF, 10 ng/ml) to promote the growth of the different cell types. Isolated glial cells were labelled with the following antibodies against surface markers: CD11b (Biolegend, Cat #101206), CD45 (Biolegend, Cat #147710), GFAP (Biolegend, Cat #837508) and MOG (Biorbyt, Cat #orb412341-FITC). Cells positive for CD11b and CD45Med were identified as microglia. Cells positive for GFAP and negative for CD45 and CD11b were identified as astrocytes. Cells sorted with MOG+CD11b− were identified as oligodendrocytes. Neurons were isolated from mouse brain using the Pierce Primary Neuron Isolation Kit (Thermo Scientific, Cat #88280). Briefly, the tissue homogenate from freshly dissected cortexes was suspended in an equal volume of ice cold HBSS (Sigma) and replaced with Neuronal Isolation Enzyme (with papain) in a 37° C. incubator for 30 minutes. After washing with HBSS, the tissue was cultured in a poly-D-lysine coated plate with Neuronal Culture Medium.\nWestern blotting. Cells were treated as indicated in individual Figure legends and whole cell extracts (WCE) were prepared in the radioimmunoprecipitation assay (RIPA) buffer (Sigma) with addition of protease and phosphatase inhibitors (Roche). Proteins were separated by 10% SDS-PAGE and transferred to polyvinylidene difluoride (PVDF) membranes (Bio-Rad Laboratories, Inc., Hercules, CA). Dual color precision protein MW markers (BioRad) were separated in parallel. Antibodies were purchased as follows: cleaved-caspase-3 (ab214430), cleaved PARP (ab203467) and GAPDH (ab9657, Abcam) from Abcam; S100A8 (47310) and S100a9 (72590) from Cell Signaling; and Ltf (GTX81085) from GeneTex. The secondary antibodies conjugated to Fluors Alex-488 (A32723) or Alex-594 (A11012) were purchased from Invitrogen (Eugene, OR). The bands were visualized on the Odyssey Imager (LiCor Inc, Lincoln, NE)."}, "microglial cells [2]": {"system": "microglial cells", "assay": "FACS analysis of apoptotic bodies (ABs) in supernatants of cultured microglial cells", "format": "cell-based, mouse", "conditions": "microglial cells isolated from young mice", "description": "Flow cytometry. Isolated cells were incubated with blocking solution (0.5% BSA/PBS) for 15 minutes at 4° C. For surface staining, cells were stained with various antibodies at room temperature for 1 hour and then washed with PBS. Washed cells were stained for 40 minutes at 4° C. with the appropriate fluorochrome-conjugated antibodies in PBS with 2% FBS. Data were acquired using a BD FACSCalibur flow cytometer (BD Biosciences, San Jose, CA) and analyzed using FlowJo software (Tree Star Inc., Ashland, OR). The following antibodies purchased from Biolegend were used for flow cytometry: anti-CD11b (101208), anti-CD45 (103112) and FITC Annexin V (640945). For the ABs analysis, extracellular vesicles were collected. To recognize the ABs, as described previously, size gates set based on forward scatter (FSC) were applied in combination with Annexin V staining. From these vesicles total ABs were detected using Annexin V staining events.\nIsolation of apoptotic bodies. Apoptotic bodies (ABs) were isolated from culture supernatants as previously described. Briefly, cell culture medium was harvested and cells were removed by pelleting at 335×g for 10 minutes. To remove cell-debris, supernatants were centrifuged at 1,000×g for 10 minutes, followed by another centrifugation at 2,000×g for 30 minutes to pellet ABs. Pelleted ABs were resuspended and washed with PBS."}, "[3]": {"assay": "Interaction of S100p1-G and metabolite: streptavidin pull-down from BV2 cells and LC-MS", "format": "cell-based, mouse", "conditions": "cell lysates", "description": "Interaction of S100p1-G and metabolite. Microglial BV2 cells (2×10^6) were transfected with biotinylated oligo S100p1-G or mutant using Lipofectamin RNAiMAX Reagent (Thermo Fisher) according to the manufacturer's instructions overnight at 37° C. […] of aged mouse fecal supernatant (from one-gram feces) was added into the cell growth medium. After six hours, the cells were collected in RIPA lysis buffer. […] of cell lysate was incubated with […] of DYNABEADS® Streptavidin beads (Thermo Fisher) at room temperature for 1 h. The bio-oligo complex was eluted with biotin (4 mg/ml)) in 25 mM Tris-HCL containing 0.3 M NaCl (PH 8.5) at 95° C. for 5 minutes. Metabolite analysis was performed with LC-MS."}, "[4]": {"assay": "Single-strand gel shift (SSGS) assay", "format": "binding", "conditions": "oligos (2 μM) incubated with IAA (10 μM), 15% PAGE", "description": "Single-strand gel shift (SSGS) assay. To identify the metabolite binding site of S100A8, we synthesized a series of oligonucleotides (oligos) (Eurofins Genomics LLC, KY) specific to the response putative IAA binding site at the promoter region of S100A8. The oligos ([…]) were incubated with […] of IAA at 37° C. for 30 minutes following electrophoresis on a 15% native PAGE without SDS in 0.5×TBE buffer. The oligos were stained with ethidium bromide ([…]) and visualized under ultraviolet (UV) light.\nGiven induction of bacterial metabolite IAA causes the degeneration of microglia by elevation of S100A8 at both the transcription and protein level, we hypothesized that IAA might directly target the promoter of S100A8 and regulate the expression of S100A8. Studying the interaction of metabolites, particularly small molecules, with nucleic acid is challenging due to a lack of appropriate tags for the metabolites. Because of this challenge, we developed a strategy raising the possibility to investigate the interaction of small molecules and nucleic acid.\nTo test our hypothesis, we first synthesized short single-DNA strains (around 60 mer length each) whose sequences spanned the promoter of S100A8 (FIG. 13A and Table 5). The site and sequence of the promoter and transcription start site (TSS) were determined according to the entire mRNA (Accession #NC_000069.7 (90,576,378 . . . 90,577,341)) and genomic sequence (Accession #L76381) from the NCBI nucleic acid database (FIG. 13A). These DNA oligos (2 μM) were incubated with IAA (10 μM) following native PAGE analysis (FIG. 4A). […] To define the accurate binding site of IAA, we synthesized 10 mer length DNA oligos covering the sequence of S100p1 (Table 5). Unfortunately, the 10 mer length oligo lost the conformational mobility shift in PAGE (FIG. 13C). We then tested the mobility shift with 20 mer oligos. […]"}, "[5]": {"assay": "Surface plasmon resonance (SPR) of biotin-labeled oligos with IAA", "format": "binding", "conditions": "biotin labeled oligo on streptavidin sensor chip", "description": "Surface plasmon resonance (SPR). To identify the binding activity of the metabolite IAA and S100A8 promoter sequence, SPR experiments were conducted on an OPENSPR™ (Nicoya, Lifesciences, CA). Experiments were performed on a streptavidin sensor (Nicoya, Lifesciences). SPR was run at a flow rate of 20 μl/min using HBS running buffer (20 mM HEPES, 150 mM NaCl, pH 7.4). First, the streptavidin sensor chip was cleaned with octyl β-D-glucopyranoside (40 mM) and CHAPS (20 mM). 200 μl of biotin-conjugated oligos (1 μg/ml, Table 5) were injected on the sensor chip for 10 minutes until a stable resonance was obtained. After immobilization of bio-oligo, the surface was blocked with BSA (3%) in running buffer. After a stable signal was obtained, IAA (10 nM) was run over the immobilized bio-oligo until a stable resonance was obtained. A negative control test was also performed by injecting IAA onto a blank sensor chip to check for non-specific binding. The sensograms were analyzed using TraceDrawer kinetic analysis software."}, "[6]": {"assay": "Morris water maze (MWM) test", "format": "in vivo, mouse", "conditions": "aged mice, intravenous, twice a week for 2 months", "description": "Morris water maze (MWM) test. Mice were trained in a 122 cm diameter, 50 cm height open-field water maze with non-reflective interior surfaces. The pool water was filled with water maintained at 25±1° C. and mixed with non-toxic white tempera paint. Distinctive and extra-maze cues were marked on the wall at specific locations and were visible to the mice in the maze. Mice were removed from cages, placed into the water from quasi-random start points and allowed a maximum of 60 seconds to probe the escape platform. The inter interval of each trail remained for 15 seconds. For four consecutive days, four trials (training) were recorded each day with a final test on day 5 (FIG. 4A). Performance was evaluated by the mean escape latencies base on every training trial (Vorhees and Williams, 2006)."}, "[7]": {"assay": "HPLC analysis of IAA and CA in serum and cerebrospinal fluid (CSF) of mice", "format": "in vivo, mouse", "conditions": "aged mice, intravenous oligo, twice a week for 2 months"}, "[8]": {"conditions": "added to ex vivo cultured microglial cells from young mice"}}}
{"compound": "C/C=C/C(=O)O", "note": "[CA, crotonic acid]", "values": [{"measurement": "effect on the microglia (cleaved caspase-3)", "setting": "microglial cells [1]; S100A8 deficient microglia cells", "value": "abolished"}, {"measurement": "cleaved caspase-3", "setting": "microglial cells [1]; [8]", "value": "increasing"}, {"measurement": "cleaved poly(-ADP-ribose) polymerase (PARP)", "setting": "microglial cells [1]; [8]", "value": "increasing"}, {"measurement": "ABs released into the culture supernatants", "setting": "microglial cells [2]", "value": "increase"}]}
{"compound": "NCCCC[C@H](N)C(=O)O", "note": "[lysine]", "values": [{"measurement": "metabolite within the Bio-S100p1-G complex (LC-MS)", "setting": "[3]", "value": "did not find"}]}
{"compound": "NCCCC(=O)O", "note": "[GABA]", "values": [{"measurement": "metabolite within the Bio-S100p1-G complex (LC-MS)", "setting": "[3]", "value": "did not find"}]}
{"compound": "hS100A8p: AGCTGTGGGCAGCTGGCCAAGCCTAA (SEQ ID NO: 39), human S100A8 promoter oligo (DNA, backbone and methylation of C not given here; further chemistry not fully specified)", "values": [{"measurement": "mobility shift on native PAGE after incubation with IAA", "setting": "[4]", "value": "binds"}]}
{"compound": "S100p1: CTGTGGGCAG CTGGCAAGC TTTCCTCTATAAAAGCAGCTGACACTTAGCCTCACAT (SEQ ID NO: 7), −57 . . . −1 (DNA CTGTGGGCAGCTGGCCAAGCTTTCCTCTATAAAAGCAGCTGACACTTAGCCTCACAT; DNA, backbone and methylation of C not given here; further chemistry not fully specified)", "values": [{"measurement": "interaction with IAA (SPR)", "setting": "[5]", "value": "targeted by IAA"}, {"measurement": "mobility shift on native PAGE after incubation with IAA", "setting": "[4]", "value": "mobility shifted"}]}
{"compound": "S100p1-G-Mut: CTGTATGCAA TTGGCCAAGC (SEQ ID NO: 9), mutant control oligo (DNA CTGTATGCAATTGGCCAAGC; DNA, backbone and methylation of C not given here; further chemistry not fully specified)", "values": [{"measurement": "memory and spatial learning (MWM)", "setting": "[6]", "value": "not seen"}, {"measurement": "IAA in CSF (HPLC)", "setting": "[7]", "value": "not seen"}]}
